From publication PMC11071266, “The putative proton-coupled organic cation antiporter is involved in uptake of triptans into human brain capillary endothelial cells” (Fluids and Barriers of the CNS, 2024)
Where two headings read alike, the source gives them in different places.

Legend:
[1] = Physicochemical properties extracted from databases
Excerpt: Triptans are a relatively homogeneous group of drug compounds with similar physicochemical properties, including molecular weights < 400 g/mol and a low to moderate lipophilicity (cLogD values ranging from − 2.1–0.18). […] As a consequence, it is unlikely that triptans cross the brain microvascular endothelium through passive diffusion to a clinically relevant extent. Table 1 summarizes structures and physicochemical properties of the triptans, as well as oxycodone and pyrilamine, which are two prototypical H^+/OC antiporter substrates included in this study.

[2] = In vivo brain distribution by neuropharmacokinetic assessment at steady state; set-up: species or system mice; settings: for Kp at 2 h / concentration at 2 h: male, mouse; for Kp at 2 h: brain and plasma
Description: Male Abcb1a/Abcb1b-eKO1 (P-gp knockout) mice and FVB wild-type counterparts (18–24 g at arrival) were obtained from Shanghai Biomodel Organism Science & Technology Development Co. Ltd (Shanghai, China). […] Animals were housed in pairs in a temperature-controlled environment (20–24 °C) with lighting maintained under a 12-h light–dark cycle. Animals were habituated for at least seven days prior to surgery with free access to food and water.
In vivo experiments were conducted to assess the extent of the BBB transport of eletriptan and to elucidate the involvement of active transport processes. All mice were cannulated in the jugular vein for intravenous drug administration. Following surgery, the animals were allowed to recover for 3 days before administration of test compounds. Eletriptan HBr was dosed in P-gp knockout and wild type mice using a loading dose of 2 mg/kg (as bolus) followed by a 2-h constant rate infusion of 3 mg/kg (1.5 mg/kg/h) dissolved in 0.9% NaCl. […] Throughout all studies a dose volume of 10 mL/kg was applied. Serial blood samples were taken from the saphenous vein during the infusion to verify steady state and at the end of infusion. Terminal blood samples were collected from all animals. Brain samples were prepared by homogenization using ultrasonication as described previously [39] and analyzed together with the plasma samples using LC–MS/MS [39].
The total brain and plasma concentration partition coefficient (Kp) was calculated from Eq. 7.7 Kp=Ctot,brain,ss/Ctot,plasma,ss where Ctot,brain,ss and Ctot,plasma,ss is the total drug concentration at steady state in brain and plasma, respectively.
The unbound brain and plasma partition coefficient (Kp,uu) was derived from dividing the unbound brain concentration with the unbound plasma concentration at the end of infusion for each animal. The Kp,uu was calculated from Eq. 8.8 Kp,uu=Ctot,brain,ss·fu,brain/Ctot,plasma,ss·fu,plasma where fu,brain and fu,plasma is the fraction of unbound drug in the brain and plasma, respectively.

[3] = target: T1, P-gp (Homo sapiens, UniProt P08183); set-up: expressed in transfected cells; host or cells: IPEC-J2 (porcine ileum epithelial cell line); method as in PMID 12438524; settings: MDR1-MDCKII cell line; cited from earlier work
T1 sequence (P08183 whole entry): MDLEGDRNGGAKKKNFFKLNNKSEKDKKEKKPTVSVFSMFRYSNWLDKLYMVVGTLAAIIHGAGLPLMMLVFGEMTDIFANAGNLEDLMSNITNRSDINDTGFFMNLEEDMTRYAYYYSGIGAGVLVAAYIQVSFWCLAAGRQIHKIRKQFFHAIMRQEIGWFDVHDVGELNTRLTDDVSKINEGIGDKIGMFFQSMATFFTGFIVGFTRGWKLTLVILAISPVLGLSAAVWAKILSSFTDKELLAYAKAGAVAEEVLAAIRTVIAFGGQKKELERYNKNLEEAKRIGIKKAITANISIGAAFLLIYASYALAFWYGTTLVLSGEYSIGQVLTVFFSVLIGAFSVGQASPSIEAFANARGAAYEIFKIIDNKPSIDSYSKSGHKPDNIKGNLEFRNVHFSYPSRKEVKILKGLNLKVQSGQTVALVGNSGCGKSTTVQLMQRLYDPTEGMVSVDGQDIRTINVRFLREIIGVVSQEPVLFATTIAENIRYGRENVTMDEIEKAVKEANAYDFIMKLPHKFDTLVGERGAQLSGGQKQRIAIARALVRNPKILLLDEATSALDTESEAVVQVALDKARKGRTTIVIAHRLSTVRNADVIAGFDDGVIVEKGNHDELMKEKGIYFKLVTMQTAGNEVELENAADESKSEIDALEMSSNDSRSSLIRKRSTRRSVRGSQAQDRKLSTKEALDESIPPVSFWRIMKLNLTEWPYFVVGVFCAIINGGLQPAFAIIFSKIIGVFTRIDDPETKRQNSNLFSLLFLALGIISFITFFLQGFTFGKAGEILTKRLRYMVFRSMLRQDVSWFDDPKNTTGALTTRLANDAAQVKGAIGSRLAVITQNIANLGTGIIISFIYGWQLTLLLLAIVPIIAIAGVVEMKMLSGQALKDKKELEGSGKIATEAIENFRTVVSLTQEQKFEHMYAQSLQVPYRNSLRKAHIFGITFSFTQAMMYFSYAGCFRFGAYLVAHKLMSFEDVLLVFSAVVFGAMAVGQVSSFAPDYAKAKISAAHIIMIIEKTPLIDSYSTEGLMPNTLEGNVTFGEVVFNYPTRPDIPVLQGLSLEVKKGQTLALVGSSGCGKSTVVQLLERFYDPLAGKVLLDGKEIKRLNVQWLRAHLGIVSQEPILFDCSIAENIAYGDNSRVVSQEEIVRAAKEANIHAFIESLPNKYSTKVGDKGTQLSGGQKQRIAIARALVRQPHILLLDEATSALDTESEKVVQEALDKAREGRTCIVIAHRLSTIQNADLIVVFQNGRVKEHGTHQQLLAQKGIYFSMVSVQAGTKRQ

[4] = in vitro; settings: C57, mouse, plasma
Description: C57 mice were used to prepare blank plasma and brain matrices throughout all binding studies.

[5] = test system: H^+/OC antiporter; assay: Inhibition of [^3H]-pyrilamine uptake into hCMEC/D3 cells; format: cell-based, human; settings: [^3H]-pyrilamine 1 µCi/mL, 48 nM, read-out: Apparent IC50 on [^3H]-pyrilamine uptake
Description: The immortalized human cerebral microvascular endothelial cell line (hCMEC/D3) was maintained in T75-flasks coated with collagen type I from calf skin (C9791, 18.7 μg/mL) and cultured in EBM®-2 medium (Lonza, Basel, Schweiz) supplemented with 5% (v/v) fetal bovine serum (FBS, 10270, Life Technologies, CA, USA or SH3008803, ThermoFisher Scientific, MA, USA), 100 U/mL penicillin and 100 μg/ml streptomycin, 1 ng/mL human basic fibroblast growth factor (bFGF), 1.4 μM hydrocortisone, 1% (v/v) chemically defined lipid concentrate (ThermoFisher Scientific, MA, USA), 10 mM N-2-hydroxyethylpiperazine-N-2-ethane sulfonic acid (HEPES) and 5 μg/mL ascorbic acid (5% CO2, 37 °C). […] For experiments, cells were seeded into 24-well plates (6.7·10^4 cells/cm^2) and cultured for four continuous days. The cells were used for experiments between passage 3–31.
The cells were equilibrated in hHBSS with or without inhibitor for 15 min (37 °C, 90 rpm). The compound of interest was spiked into the hHBSS followed by incubation for a designated time. The timeframe of the initial uptake rate was validated into hCMEC/D3 cells (Fig. 1 and Additional file 1). The experiment was terminated by washing three times with ice-cold HBSS supplemented with 0.0375% (v/v) sodium bicarbonate.
The inhibitory constant at 50% inhibition (IC50) was determined by fitting the uptake flux (Jss) as function of the logarithmic inhibitor concentration to Eq. 2.2 Jss=Jmin+(Jmax-Jmin)/1+10^logIC50-InH where [I] is the inhibitor concentration, nH is the Hill coefficient.
The hCMEC/D3 cells were used for [^3H]-pyrilamine inhibition studies between passage 3–6 (pyrilamine, oxycodone), 16–18 (almotriptan), 7–13 (eletriptan), 25–27 (frovatriptan), 3–8 (naratriptan), 16–18 (rizatriptan), 12–14 (sumatriptan), and 14–16 (zolmitriptan).
The cells were permeabilized using 0.1% (v/v) Triton X-100 in ultrapure water (ELGA, Buckinghamshire, England) for 10 min at room temperature. Thereafter, the cells were scraped off the bottom of the wells, transferred to scintillation vials, and mixed with 2 mL of Ultima Gold 241 TM (Perkin Elmer, MA, USA). The samples were analyzed using a Tri-Carb 2910 TR Liquid Scintillation Analyzer (Perkin Elmer, MA, USA).

[6] = test system: P-gp; set-up: method as in PMID 12814962; settings: brain Kp in wild type and mdr1a knockout mice; cited from earlier work
[7] = test system: H^+/OC antiporter; assay: Cellular uptake into hCMEC/D3 cells after intra- and extracellular pH manipulation; format: cell-based, human
[8] = pH 7.4; cited from earlier work
[9] = target: T1, P-gp; assay: Bidirectional transport across IPEC-J2 MDR1 monolayers; settings: pH 7.4
Description: The porcine ileum epithelial cell line IPEC-J2 transfected with human MDR1 [37] was maintained in T175-flasks and cultured in Dulbecco's Modified Eagle Medium/Nutrient Mixture F-12, supplemented with 10% (v/v) FBS (SH3008803, ThermoFisher Scientific, MA, USA), 100 U/mL penicillin and 100 μg/mL streptomycin, 2 mM L-glutamine, and 1 mM sodium pyruvate. The culture medium was supplemented with 2 µg/mL puromycin during maintenance. Culture media was changed every second or third day. Cells were passaged using trypsin–EDTA solution 10x (5–10 min, 5% CO2, 37 °C). For experiments, cells were either seeded into 24-well plates (1·10^5 cells/cm^2) and cultured for 2 days or seeded on Transwell® polyester inserts (3460, 1.12 cm^2, pore size 0.4 µm) (3.57·10^4 cells/cm^2) and cultured for 15–17 days. IPEC-J2 MDR1 cells were used for experiments between passage 2–4.
Bidirectional transport studies were conducted using IPEC-J2 MDR1 cell monolayers cultured on semipermeable Transwell® polyester inserts (Corning Inc., NY, USA, 3460, 1.12 cm^2, pore size 0.4 µm). The cells were washed twice with 37 °C hHBSS. […]
The accumulated amount of drug (Q) was calculated for each time-point using Eq. 3.3 Q=Vs∑n-1nCn-1+CnVt where Vs represents the sample volume, Vt the total volume of the receiver compartment, Cn is the concentration of the sample n.
Steady state flux (Jsteady state) was calculated as the slope of the linear part of the accumulated amount (Q) in the receiver compartment as function of time from Eq. 4.4 Jss=ΔQ/Δt·A where t represents time and A is the area of the permeable support.
The apparent permeability (Papp) was calculated from Eq. 5.5 Papp=Jss/Cdonor where Cdonor represents the initial concentration in the donor compartment.
Efflux ratios (ER) were calculated as the ratio of the apparent permeability in the basolateral to apical direction Papp(B-A) and the permeability in the apical to basolateral direction Papp(A-B) using Eq. 6.6 ER=PappB-A/Papp(A-B)

[10] = set-up: method as in PMID 32173558; settings: cited from earlier work
[11] = test system: H^+/OC antiporter; set-up: method as in PMID 35955563; settings: trans-stimulation in hCMEC/D3 cells; cited from earlier work

CN1CCC[C@@H]1Cc1c[nH]c2ccc(CCS(=O)(=O)c3ccccc3)cc12 [Eletriptan]
Overall charge pH 7.4 [1]: Positive | Increase of brain uptake (Kp, Kp,uu) in mdr1a/1b knockout vs wild type mice ([2]; knockout vs wild type): > 30 fold | Kp at 2 h ([2]; Abcb1a/Abcb1b-eKO1 (P-gp knockout), intravenous, mdr1a/1b knockout mice, steady state, read-out: Kp (C,brain/C,plasma)): 6.35 ± 0.91 | Kp at 2 h ([2]; Abcb1a/Abcb1b-eKO1 (P-gp knockout), intravenous, mdr1a/1b knockout mice, steady state, read-out: Kp,uu (C,brain·fu,brain)/C,plasma·fu,plasma)): 1.32 | concentration at 2 h ([2]; Abcb1a/Abcb1b-eKO1 (P-gp knockout), brain, intravenous, mdr1a/1b knockout mice, steady state, read-out: C,brain): 1450 ± 175 ng/mL | concentration at 2 h ([2]; Abcb1a/Abcb1b-eKO1 (P-gp knockout), plasma, iv, mdr1a/1b knockout mice, steady state, 2-h i.v. infusion, read-out: C,plasma): 229 ± 6 ng/mL | concentration at 2 h ([2]; FVB (wild type and Abcb1a/Abcb1b knockout), plasma, intravenous, bolus dose followed by 2-h constant infusion, read-out: Plasma concentrations at steady state): 259 ± 30 ng/mL | Kp at 2 h ([2]; FVB wild-type (eletriptan), C57BL/6N (diphenhydramine), intravenous, wild type mice, steady state, read-out: Kp (C,brain/C,plasma)): 0.17 ± 0.016 | Kp at 2 h ([2]; FVB wild-type (eletriptan), C57BL/6N (diphenhydramine), intravenous, wild type mice, steady state, read-out: Kp,uu (C,brain·fu,brain)/C,plasma·fu,plasma)): 0.04 | concentration at 2 h ([2]; FVB wild-type (eletriptan), C57BL/6N (diphenhydramine), brain, intravenous, wild type mice, steady state, read-out: C,brain): 41 ± 5 ng/mL | concentration at 2 h ([2]; FVB wild-type (eletriptan), C57BL/6N (diphenhydramine), plasma, iv, wild type mice, steady state, 2-h i.v. infusion, read-out: C,plasma): 240 ± 18 ng/mL | ER [3]: 44.7 | fraction unbound at 1 µM ([4]; fu,brain): 0.083 | fraction unbound at 1 µM ([4]; fu,plasma): 0.4 | IC50 ([5]; listed as eletriptan): ~15 µM | IC50 [5]: 15 ± 4 µM | P-gp substrate [6]: substrates of P-gp | Cellular uptake after intracellular alkalization ([7]; acute exposure to 30 mM NH4Cl vs control pH 7.4): decreased | Cellular uptake at extracellular acidification ([7]; extracellular pH 6.8 vs pH 7.4): did not affect | Cellular uptake at extracellular alkalization ([7]; extracellular pH 8.2 vs pH 7.4): slight decrease | Proton-gradient dependence of uptake ([7]; hCMEC/D3 cells): yes | Cellular uptake after intracellular acidification ([7]; preexposure to 30 mM NH4Cl followed by media change vs control): statistically significant increase | cLogD pH 7.4 [8]: 1.1 | Papp A→B at 120 min, 50 µM [9]: 0.82 ± 0.05 ×10⁻⁶ cm/s | Papp B→A at 120 min, 50 µM [9]: 24 ± 2 ×10⁻⁶ cm/s | efflux ratio at 120 min, 50 µM [9]: 28.9 ± 1.8 | Clinically relevant human peak plasma concentrations [10]: 94 to 200 ng/mL | Clinically relevant plasma concentrations ([10]; human): 246 to 523 nM | H^+/OC antiporter substrate [11]: might be a substrate of the H^+/OC antiporter
